Assay results from patent publication US8278294B2, “Substituted isoquinoline and isoquinolinone derivatives as inhibitors of Rho-kinase” (Sanofi, priority 2006, dated 2012).

biological target: T1, human recombinant ROCK II (Homo sapiens, UniProt O75116); experiment: Determination of Rho kinase inhibition (Caliper peptide phosphorylation assay); assay type: biochemical; conditions: negative decadal logarithm of the IC50; ROCK II residues 11-552, fluorescein peptide substrate, ATP, 60 min at 32° C.; salt or free base as obtained in the examples
T1 construct: recombinant human ROCK-II residues 11-552; His6 (N); purchased Upstate Ltd., Dundee, UK
Protocol: Determination of Rho Kinase Inhibition
To measure Rho-kinase inhibition, IC50 values were determined according to the following protocol:
Active human recombinant ROCK II (N-terminal His6-tagged recombinant human ROCK-II residues 11-552) was purchased from Upstate Ltd., Dundee, UK. The peptide substrate, Fluorescein-AKRRRLSSLRA-COOH, was obtained from JPT Peptide Technologies, Berlin, Germany. Adenosine-5′-triphosphate (ATP), bovine serum albumine (BSA), dimethylsulphoxide (DMSO), 4-(2-Hydroxyethyl)piperazine-1-ethanesulfonic acid (Hepes), Brij-35 and dithiothreitol (DTT) were purchased from Sigma-Aldrich, Munich, Germany. Tris(hydroxymethyl)-aminomethane (Tris), magnesium chloride, NaOH, 1M HCl and EDTA were obtained from Merck Biosciences, Darmstadt, Germany. “Complete” protease inhibitor was from Roche Diagnostics, Mannheim, Germany.
Test compounds were diluted to the appropriate concentrations in buffer 1 (25 mM Tris-HCl, pH 7.4, 5 mM MgCl2, 2 mM DTT, 0.02% (w/v) BSA and 3% DMSO). The ROCK II enzyme was diluted to a concentration of 100 ng/ml in buffer 2 (25 mM Tris-HCl, pH 7.4, 5 mM MgCl2, 2 mM DTT and 0.02% (w/v) BSA). The peptide substrate and ATP were diluted to concentrations of 3 μM and 120 μM, respectively, in the buffer 2. Two μl of the compound solution were mixed with 2 μl of the diluted enzyme in a 384-well small volume microtiter plate (Greiner, Bio-One, Frickenhausen, Germany), and the kinase reaction was initiated by addition of 2 μl of the solution containing peptide substrate and ATP. After 60 min incubation at 32° C., the reaction was stopped by addition of 20 μl of a solution containing 100 mM Hepes-NaOH, pH 7.4, 0.015% (v/v) Brij-35, 45 mM EDTA and 0.227% chip coating reagent 1 (Caliper Lifescience Inc, Hopkinton, Mass.). Phosphorylation of the substrate peptide was then detected on a Caliper 3000 instrument essentially as described by Pommereau et al (J. Biomol. Screening 9(5), 409-416, 2004). Separation conditions were as follows: Pressure −1.3 psi, upstream voltage −1562 V, downstream voltage −500 V, sample sip time 200 ms. Positive controls (buffer 1 instead of compound) and negative controls (buffer 1 instead of compound and buffer 2 instead of ROCK II) were run in parallel on each plate.
The following products/compounds were tested in said assay by using the respective form (salt or free base) obtained as in the examples described above and the following activities were measured.

T1 sequence (O75116 11-552): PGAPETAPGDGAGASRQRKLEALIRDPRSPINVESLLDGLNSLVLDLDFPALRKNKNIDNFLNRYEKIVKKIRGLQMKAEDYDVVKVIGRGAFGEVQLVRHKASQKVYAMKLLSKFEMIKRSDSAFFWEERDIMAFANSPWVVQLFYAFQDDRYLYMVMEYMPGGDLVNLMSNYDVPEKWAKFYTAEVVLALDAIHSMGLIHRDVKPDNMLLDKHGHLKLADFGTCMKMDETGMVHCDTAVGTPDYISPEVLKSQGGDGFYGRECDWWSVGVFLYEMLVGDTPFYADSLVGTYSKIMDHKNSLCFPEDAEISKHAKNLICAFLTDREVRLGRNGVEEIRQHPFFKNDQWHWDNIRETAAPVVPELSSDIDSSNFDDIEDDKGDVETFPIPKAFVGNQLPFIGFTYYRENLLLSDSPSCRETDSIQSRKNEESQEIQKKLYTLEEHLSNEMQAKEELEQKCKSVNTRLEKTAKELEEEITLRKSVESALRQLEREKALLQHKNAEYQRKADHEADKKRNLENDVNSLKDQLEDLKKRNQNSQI

| Compound | IC50 [nM] |
| --- | --- |
| Cc1c[nH]c(=O)c2ccc(OC3CCN(C[C@@H](N)CO)CC3)c(F)c12 [Example 75, 6-[1-((R)-2-Amino-3-hydroxy-propyl)-piperidin-4-yloxy]-5-fluoro-4-methyl-2H-isoquinolin-1-one] | 1000 to 10000 |
| NC1(C(=O)N2CCC(Oc3cc4cc[nH]c(=O)c4cc3Cl)CC2)CC1 [Example 19, 6-[1-(1-Amino-cyclopropanecarbonyl)-piperidin-4-yloxy]-7-chloro-2H-isoquinolin-1-one] | 1000 to 10000 |
| O=c1[nH]ccc2cc(O[C@H]3CCN(Cc4ccccc4)C3)c(Cl)cc12 [Example 67, 6-((S)-1-Benzyl-pyrrolidin-3-yloxy)-7-chloro-2H-isoquinolin-1-one] | 1000 to 10000 |
| O=C([C@@H]1CCCN1)N1CCC(Oc2cc3cc[nH]c(=O)c3cc2Cl)CC1 [Example 15, 7-Chloro-6-[1-((S)-pyrrolidine-2-carbonyl)-piperidin-4-yloxy]-2H-isoquinolin-1-one] | ≤ 1000 |
| CCCNC(=O)CN1CCC(Oc2cc3cc[nH]c(=O)c3cc2Cl)CC1 [Example 46, 2-[4-(7-Chloro-1-oxo-1,2-dihydro-isoquinolin-6-yloxy)-piperidin-1-yl]-N-propyl-acetamide] | ≤ 1000 |
| NCC(=O)N1CCC(Oc2ccc3c(=O)[nH]ccc3c2)CC1 [Example 24, 6-[1-(2-Amino-acetyl)-piperidin-4-yloxy]-2H-isoquinolin-1-one] | ≤ 1000 |

More lines, now with the values ahead:

| IC50 [nM] | Compound |
| --- | --- |
| ≤ 1000 | Cc1cc2c(=O)[nH]ccc2cc1OC1CCCNCC1 (stereo not drawn) [Example 68, 6-(Azepan-4-yloxy)-7-methyl-2H-isoquinolin-1-one] |
| ≤ 1000 | N[C@@H](Cc1ccc(Cl)cc1)C(=O)N1CCC(Oc2cc3cc[nH]c(=O)c3cc2Cl)CC1 [Example 22, 6-{1-[(S)-2-Amino-3-(4-chloro-phenyl)-propionyl]-piperidin-4-yloxy}-7-chloro-2H-isoquinolin-1-one] |
| ≤ 1000 | CN(C)CC(=O)N1CCC(Oc2cc3cc[nH]c(=O)c3cc2Cl)CC1 [Example 16, 7-Chloro-6-[1-(2-dimethylamino-acetyl)-piperidin-4-yloxy]-2H-isoquinolin-1-one] |
| ≤ 1000 | C[C@@H](N)C(=O)N1CCC(Oc2cc3cc[nH]c(=O)c3cc2Cl)CC1 [Example 11, 6-[1-(2-Amino-propionyl)-piperidin-4-yloxy]-7-chloro-2H-isoquinolin-1-one] |
| ≤ 1000 | Cc1cc2c(=O)[nH]ccc2cc1O[C@H]1CCNC1 [Example 70, 7-Methyl-6-((S)-pyrrolidin-3-yloxy)-2H-isoquinolin-1-one] |
| ≤ 1000 | O=c1[nH]ccc2cc(OC3CNC3)c(Cl)cc12 [Example 58, 6-(Azetidin-3-yloxy)-7-chloro-2H-isoquinolin-1-one] |
| ≤ 1000 | O=c1[nH]ccc2cc(O[C@@H]3CCN(Cc4ccccc4)C3)c(Cl)cc12 [Example 66, 6-((R)-1-Benzyl-pyrrolidin-3-yloxy)-7-chloro-2H-isoquinolin-1-one] |
| ≤ 1000 | Cc1cc2c(=O)[nH]ccc2cc1OC[C@@H]1CCNC1 [Example 69, 7-Methyl-6-((R)-1-pyrrolidin-3-ylmethoxy)-2H-isoquinolin-1-one] |
| ≤ 1000 | O=c1[nH]ccc2cc(OC3CCCNCC3)c(Cl)cc12 (stereo not drawn) [Example 55, 6-(Azepan-4-yloxy)-7-chloro-2H-isoquinolin-1-one] |
